Measured values published in article PMC4335062, “Data-Driven Prediction and Design of bZIP Coiled-Coil Interactions” (PLoS Computational Biology, 2015).
Read-outs that look alike come from different tables or passages of the source. Where no end group is shown, it is not given here.

Assays:
Test in all cases: Direct-binding FRET assay
Settings in all cases: read-out: Kd
[1] = molecular target: T1, CREB1 (Homo sapiens, UniProt P16220)
T1 construct: made in house
T1 sequence (P16220 269-327 limits assumed): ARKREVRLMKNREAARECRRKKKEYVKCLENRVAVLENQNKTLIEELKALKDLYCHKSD
Protocol: (§1) The direct binding assay was performed manually in 384-well plates and is similar to a previously described assay. Wells were filled with 20 μL of 1 mM TCEP-HCl. A 4 μM stock of acceptor protein was made fresh in 1 mM TCEP-HCl, and 20 μL was titrated in 2-fold dilutions over the wells. […] The direct-binding FRET data were fit as previously described. Briefly, the Kd of the designed peptide homodimer was experimentally determined and used with previously determined target homodimer Kd values to determine the heterodimer Kd. The homodimer Kd values used for the human bZIPs were from; experiments done by […] et al. used the same protein constructs for the human bZIP proteins, the same buffer conditions, and the same assay. The fitting used a system of ordinary differential equations to describe the concentrations of homo and heterodimers formed by the donor (D) and acceptor (A) as a function of the heterodimer Kd. MATLAB was used to simulate the binding experiment for different Kd values, and the value that gave the best agreement between simulation and experiment was assigned. A minimum 15% change in the donor fluorescence upon titrating the acceptor peptide from 0 to 1000 nM was required for a fit to be attempted. If this minimum was not met, the interaction was classified as “NS” for no signal change. […] For such curves, we removed the first five points and re-fit the data.

[2] = molecular target: T2, MAFF (Homo sapiens, UniProt Q9ULX9)
T2 construct: made in house
T2 sequence (Q9ULX9 51-114 limits assumed): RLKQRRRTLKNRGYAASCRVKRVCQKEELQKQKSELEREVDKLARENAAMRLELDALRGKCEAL
Protocol: as §1

[3] = molecular target: T3, ATF3 (Homo sapiens, UniProt P18847)
T3 construct: made in house
T3 sequence (P18847 86-149 limits assumed): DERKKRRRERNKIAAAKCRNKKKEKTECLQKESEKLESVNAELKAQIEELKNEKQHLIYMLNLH
Protocol: as §1

[4] = molecular target: T4, ATF4 (Homo sapiens, UniProt P18848)
T4 construct: made in house
T4 sequence (P18848 278-341 limits assumed): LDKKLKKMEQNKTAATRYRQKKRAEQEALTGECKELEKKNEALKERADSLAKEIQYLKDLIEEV
Protocol: as §1

[5] = molecular target: T5, NFE2 (Homo sapiens, UniProt Q16621)
T5 construct: made in house
T5 sequence (Q16621 266-329 limits assumed): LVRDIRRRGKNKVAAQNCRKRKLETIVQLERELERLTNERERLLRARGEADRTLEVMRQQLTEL
Protocol: as §1

[6] = molecular target: T6, XBP1 (Homo sapiens, UniProt P17861)
T6 construct: made in house
T6 sequence (P17861 70-133 limits assumed): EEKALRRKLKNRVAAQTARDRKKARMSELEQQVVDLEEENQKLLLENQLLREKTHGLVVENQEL
Protocol: as §1

[7] = molecular target: T7, NFE2L3 (Homo sapiens, UniProt Q9Y4A8)
T7 construct: made in house
T7 sequence (Q9Y4A8 578-641 limits assumed): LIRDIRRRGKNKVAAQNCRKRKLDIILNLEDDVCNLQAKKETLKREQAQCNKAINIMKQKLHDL
Protocol: as §1

[8] = molecular target: MAFG (Homo sapiens, UniProt O15525); parameters: made in house
Protocol: as §1

[9] = molecular target: FOS (Homo sapiens, UniProt P01100); parameters: made in house
Protocol: as §1

[10] = molecular target: JUN (Homo sapiens, UniProt P05412); parameters: made in house
Protocol: as §1

[11] = molecular target: ATF6B (Homo sapiens, UniProt Q99941); parameters: made in house
Protocol: as §1

[12] = 4°C, C-terminal fluorescein design as donor, TAMRA target titrated
[13] = 4°C, C-terminal rhodamine design, repeat 1
[14] = 4°C, N-terminal rhodamine design, mean or single
[15] = 23°C, C-terminal fluorescein design as donor, TAMRA target titrated
[16] = 23°C, C-terminal rhodamine design, repeat 1
[17] = 23°C, N-terminal rhodamine design, mean or single
[18] = 37°C, C-terminal fluorescein design as donor, TAMRA target titrated
[19] = 37°C, C-terminal rhodamine design, repeat 1
[20] = 37°C, N-terminal rhodamine design, mean or single
[21] = 4°C, C-terminal rhodamine design, mean or single
[22] = 37°C, C-terminal rhodamine design, repeat 2
[23] = 23°C, C-terminal rhodamine design, mean or single

Sequence of MAFG (O15525 51-114 limits assumed): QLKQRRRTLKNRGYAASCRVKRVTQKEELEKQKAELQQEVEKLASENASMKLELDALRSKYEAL
Sequence of ATF6B (Q99941 325-388 limits assumed): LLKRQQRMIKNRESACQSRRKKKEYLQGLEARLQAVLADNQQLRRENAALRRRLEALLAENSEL

Kd [1, 12]: > 5000 nM
Kd [1, 13]: > 1000 nM
Kd [1, 14]: > 5000 nM
Kd [1, 15]: > 1000 nM
Kd [1, 16]: > 1000 nM
Kd [1, 17]: > 5000 nM
Kd [1, 18]: > 1000 nM
Kd [1, 19]: > 5000 nM
Kd [1, 20]: > 1000 nM
Kd [2, 21]: > 5000 nM
Kd [2, 14]: < 200 nM
Kd [2, 16]: > 5000 nM
Kd ([2]; 23°C, C-terminal rhodamine design, repeat 2): < 200 nM
Kd [2, 17]: > 1000 nM
Kd [2, 19]: < 200 nM
Kd [2, 22]: < 200 nM
Kd [2, 20]: > 1000 nM
Kd [3, 13]: > 1000 nM
Kd [3, 14]: > 1000 nM
Kd [3, 15]: > 1000 nM
Kd [3, 16]: > 1000 nM
Kd [3, 17]: > 1000 nM
Kd [3, 18]: > 1000 nM
Kd [3, 19]: > 1000 nM
Kd [3, 20]: > 1000 nM
Kd [4, 12]: 2.3 nM
Kd [4, 21]: 1 nM
Kd ([4]; 4°C, N-terminal rhodamine design, repeat 1): > 5000 nM
Kd ([4]; 4°C, N-terminal rhodamine design, repeat 2): > 5000 nM
Kd [4, 15]: 3.7 nM
Kd [4, 23]: 1 nM
Kd [4, 18]: 10 nM
Kd [5, 12]: 42.4 nM
Kd [5, 14]: > 5000 nM
Kd [5, 16]: 200 to 1000 nM
Kd [5, 17]: > 1000 nM
Kd [5, 18]: > 1000 nM
Kd [5, 19]: > 5000 nM
Kd [5, 22]: > 5000 nM
Kd [5, 20]: > 1000 nM
Kd [6, 13]: > 1000 nM
Kd [6, 14]: > 1000 nM
Kd [6, 16]: > 1000 nM
Kd [6, 17]: > 1000 nM
Kd [6, 19]: > 1000 nM
Kd [6, 20]: > 1000 nM
Kd [7, 13]: > 5000 nM
Kd [7, 14]: > 1000 nM
Kd [7, 16]: > 5000 nM
Kd [7, 17]: > 1000 nM
Kd [7, 19]: > 5000 nM
Kd [7, 20]: > 1000 nM
Kd [8, 13]: > 5000 nM
Kd [8, 14]: > 1000 nM
Kd [8, 16]: > 5000 nM
Kd [8, 17]: > 1000 nM
Kd [8, 19]: 200 to 1000 nM
Kd [8, 20]: > 1000 nM
Kd [9, 14]: 133 nM
Kd [9, 15]: > 1000 nM
Kd [9, 16]: > 5000 nM
Kd [9, 17]: > 1000 nM
Kd [9, 18]: > 1000 nM
Kd [9, 19]: > 1000 nM
Kd [9, 20]: > 1000 nM
Kd [10, 12]: > 1000 nM
Kd [10, 21]: < 200 nM
Kd [10, 14]: > 1000 nM
Kd [10, 15]: > 1000 nM
Kd [10, 23]: < 200 nM
Kd [10, 17]: > 5000 nM
Kd [10, 18]: > 1000 nM
Kd ([10]; 37°C, C-terminal rhodamine design, mean or single): 623 nM
Kd [10, 20]: > 5000 nM
Kd [11, 12]: > 1000 nM
Kd [11, 13]: > 5000 nM
Kd [11, 14]: > 1000 nM
Kd [11, 15]: > 1000 nM
Kd [11, 16]: > 5000 nM
Kd [11, 17]: > 1000 nM
Kd [11, 18]: > 1000 nM
Kd [11, 19]: > 5000 nM
Kd [11, 20]: > 1000 nM
Sequence: NQIKTLRTRLSKLRKDNLQLEKDIANLERKAKDLRAEKEQLEYEL [ATF4-d1]
